# Test results as given in publication PMC11714206, “Massively Parallel Screening of Toll/Interleukin‐1 Receptor (TIR)‐Derived Peptides Reveals Multiple Toll‐Like Receptors (TLRs)‐Targeting Immunomodulatory Peptides” (Advanced Science, 2024).
# Molecular target: T1, MyD88^TIR (Homo sapiens, UniProt Q99836)
# T1 construct: MyD88 (residues 148–296); 6xHis; made in house; host or cells: E. coli BL21 (DE3)
# Assay: T‐Surf phage library (P8 and P3) selection against MyD88^TIR, four rounds, NGS read counts
# Type: binding
# Details: for P8_MyD88 Rank (after) / P8_MyD88 Rank (before): P8 library; for Population: 4th round of selection against MyD88 TIR, share of NGS reads; for P3_MyD88 Rank (after) / P3_MyD88 Rank (before): P3 library
# Protocol: T‐Surf libraries were screened against the immobilized TIR domains of two major human TLR adaptor proteins, MAL^TIR and MyD88^TIR, allowing cross‐species selection of TIR‐binding motifs with 190 946 TIR‐derived peptides in a single binding assay (Scheme 1). Enriched phage pools from the fourth round of selection were analyzed using NGS after barcoding the peptide‐coding regions of the phage pools.
# Phage display screening was performed by coating two wells of a 96‐well plate (Maxisorp, Thermo Fisher Scientific) with 100 µL of 5 µg mL^−1 TIR domains overnight; then, the coated wells were blocked with 200 µL of blocking buffer (0.2% BSA in PBS) and set aside for 1 h at 4 °C with gentle shaking. Next, 100 µL of the phage library was added to the wells and incubated for 1 h at room temperature (RT; 20 – 22 °C) with gentle shaking. The plate was washed four times with PBS containing 0.5% Tween‐20; the bound phages were eluted by adding 100 µL of 100 mM HCl to each well. The elute was neutralized with 10 µL of 1.0 M Tris‐HCl (pH 11.0). E. coli TG1 cells were grown to the log phase (A600 = ≈0.6), and 1 mL of the culture was incubated with 100 µL of the eluted phages for 30 min at 37 °C, with shaking at 200 rpm. Next, 1 µL of M13KO7 helper phages was added, followed by incubation for 45 min at 37 °C, with shaking. Subsequently, the cells were transferred to 25 mL of 2× yeast extract tryptone/carbenicillin/kanamycin medium and incubated overnight at 37 °C with shaking at 200 rpm. The amplified phages were precipitated with 20% PEG‐8000/2.5 M NaCl to be used for the next round of selection.
# The naïve T‐Surf libraries in P8 and P3 and the enriched phage pools after four rounds were barcoded for NGS as previously described.^[ [59] ^] Briefly, 5 µL of the phage pool was used as a template for 20 cycles of a 50 µL PCR reaction using […] each of forward and reverse barcoded primers and PrimeSTAR Max DNA Polymerase. The PCR products were purified using Expin Gel SV (GeneAll). The NGS samples were quantified using qPCR, following the qPCR Quantification Protocol Guide (KAPA Library Quantification kits for Illumina Sequencing Platform), and qualified using the TapeStation High Sensitivity D1000 ScreenTape (Agilent Technologies). The indexed libraries were further sequenced by Macrogen (Seoul, Republic of Korea) using the NovaSeq platform (Illumina) with 100 bp paired‐end reads. The reads were demultiplexed by barcodes and filtered for an average Phred quality score of at least 30, followed by trimming the flanking consensus sequences using Cutadapt (version 2.3). Peptide sequence populations were analyzed according to the read counts.
# [1] = P8_MyD88: rank by NGS read count after grouping
# [2] = P8_MyD88: rank by NGS read count before grouping
# [3] = selection against MyD88 TIR, rank by count after grouping
# [4] = selection against MyD88 TIR, rank by count before grouping
# [5] = selection against MyD88, rank after grouping
# [6] = selection against MyD88, rank before grouping
# [7] = P8_MyD88 pool: P8 T-Surf phage library
# [8] = P8_MyD88: rank by count after grouping
# [9] = P8_MyD88: rank by count before grouping
# [10] = 4R selection against MyD88, rank after grouping
# [11] = 4R selection against MyD88, rank before grouping
# [12] = P3_MyD88: rank by count after grouping
# [13] = P3_MyD88: rank by count before grouping
# [14] = selection against MyD88, rank by count after grouping
# [15] = selection against MyD88, rank by count before grouping
# [16] = P3_MyD88 pool: P3 T-Surf phage library
# T1 sequence (Q99836 148-296): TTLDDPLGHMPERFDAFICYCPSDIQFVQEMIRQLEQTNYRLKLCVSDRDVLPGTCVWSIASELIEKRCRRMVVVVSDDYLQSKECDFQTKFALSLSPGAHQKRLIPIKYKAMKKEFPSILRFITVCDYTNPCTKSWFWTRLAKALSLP
sequence,measurement,setting,value
DPQDLECFYERRVSLF,Rank (after),[1],916
same,Rank (before),[2],2845
YSFLSHLAAAFELHGI,P8_MyD88 Rank (after),[3],285
same,P8_MyD88 Rank (before),[4],543
DPQDLNGFMNVCLAR,P8_MyD88 Rank (after),[5],488
same,P8_MyD88 Rank (before),[6],2947
DPQDLEWFYERLVSLF,Population,[7],0.0112%
ELDFSHFWLFDAGGDAAI,Rank (after),[1],956
same,Rank (before),[2],3183
SSFREGLWRLLELSQN,P3_MyD88 Rank (after),[5],544
same,P3_MyD88 Rank (before),[6],3171
LGYHWFDWVYFVGIED,P8_MyD88 Rank (after),[5],523
same,P8_MyD88 Rank (before),[6],3329
DPQDLDWFYERVVGLF,Rank (after),[1],914
same,Rank (before),[2],2759
PQVVACFFQRLESMIL,Rank (after),[1],871
same,Rank (before),[2],3403
WDFASNMNSFGIVCI,Rank (after),[1],974
same,Rank (before),[2],1628
NFVEYFVYQMMPDILE,Rank (after),[8],153
same,Rank (before),[9],167
same,Population,[7],0.00886%
SRDYATSPWALDELLR,P3_MyD88 Rank (after),[10],627
same,P3_MyD88 Rank (before),[11],3103
YASSSWALNELLEILDAKETM,Rank (after),[8],456
same,Rank (before),[9],1901
YASSSWALDELWLILEQR,Rank (after),[1],961
same,Rank (before),[2],1883
PSEVRVVDDGSVSPLEM,P3_MyD88 Rank (after),[3],211
same,P3_MyD88 Rank (before),[4],1126
DWVWDYLLPNLEGPG,P8_MyD88 Rank (after),[3],260
same,P8_MyD88 Rank (before),[4],1038
DPQALAWFYERLVSLF,P8_MyD88 Rank (after),[3],256
same,P8_MyD88 Rank (before),[4],2682
SSCREGLWRLLELIKK,P3_MyD88 Rank (after),[10],607
same,P3_MyD88 Rank (before),[11],3259
SELREVADGSVSPLEM,P3_MyD88 Rank (after),[3],192
same,P3_MyD88 Rank (before),[4],3063
DPHDLQWLYERLVSLI,Rank (after),[1],985
same,Rank (before),[2],2634
GFLYQAFAREGLWRLLELSKK,Rank (after),[12],172
same,Rank (before),[13],912
YNLAHYLYVSMRASGI,P8_MyD88 Rank (after),[14],715
same,P8_MyD88 Rank (before),[15],2132
YTALTNSGFLSFRDTD,Rank (after),[12],428
same,Rank (before),[13],1661
DPQDQDWVYERLVSLF,Rank (after),[1],936
same,Rank (before),[2],2966
NHDLDLPRGKAIKPEILG,P3_MyD88 Rank (after),[10],606
same,P3_MyD88 Rank (before),[11],3460
GWIREHLWPLLKQRMT,P3_MyD88 Rank (after),[5],521
same,P3_MyD88 Rank (before),[6],1877
KNLIMEQLSKELHTVM,P3_MyD88 Rank (after),[14],724
same,P3_MyD88 Rank (before),[15],3792
PQDLEWFYERLFSQM,Rank (after),[8],96
same,Rank (before),[9],102
same,Population,[7],0.0227%
YASYDDNDYYWVTHVLLRFV,P8_MyD88 Rank (after),[3],215
same,P8_MyD88 Rank (before),[4],1788
SSFREALWRLIELSTK,P3_MyD88 Rank (after),[10],667
same,P3_MyD88 Rank (before),[11],3223
YELVHVWSSKANSLVG,Population,[16],0.0032%
SELRVVDDGSVSPPNL,P3_MyD88 Rank (after),[5],570
same,P3_MyD88 Rank (before),[6],3040
YLKWAIRGFGIVCVL,P3_MyD88 Rank (after),[3],238
same,P3_MyD88 Rank (before),[4],862
DPKDLQWFYERLVSLF,Rank (after),[1],1027
same,Rank (before),[2],3043
DRSIWDRLLYSLHVTE,Rank (after),[1],996
same,Rank (before),[2],3141
DPPELDWFYERLFSLF,Rank (after),[1],971
same,Rank (before),[2],2627
LGYHWIDLGYFVGIED,P8_MyD88 Rank (after),[14],767
same,P8_MyD88 Rank (before),[15],3249
SAAYDDIWERLNRMIE,Rank (after),[8],481
same,Rank (before),[9],3737
SSFREGPWRLLALSKK,P3_MyD88 Rank (after),[5],509
same,P3_MyD88 Rank (before),[6],3216
DPQDLDWFYEHLFSQM,Rank (after),[8],411
same,Rank (before),[9],2801
LKVESWRQALDELVL,P3_MyD88 Rank (after),[3],261
same,P3_MyD88 Rank (before),[4],1077
PEKDNGGENALSITL,P3_MyD88 Rank (after),[3],218
same,P3_MyD88 Rank (before),[4],1121
DPQDLDWLYERLVRLF,P8_MyD88 Rank (after),[3],238
same,P8_MyD88 Rank (before),[4],2828
LVAHEISKMMKVFATI,P3_MyD88 Rank (after),[14],694
same,P3_MyD88 Rank (before),[15],2285
WPQDPQDLGWFYERLE,Rank (after),[8],416
same,Rank (before),[9],899
PQDQEWFYERMVSLIL,P8_MyD88 Rank (after),[5],517
same,P8_MyD88 Rank (before),[6],3491
LSRVTSVHDARGLGGI,P3_MyD88 Rank (after),[5],564
same,P3_MyD88 Rank (before),[6],2395
DPQDLDWFYERRVCLF,P8_MyD88 Rank (after),[14],733
same,P8_MyD88 Rank (before),[15],2791
RLLKWKEALHQFHSLVG,P3_MyD88 Rank (after),[3],277
same,P3_MyD88 Rank (before),[4],2580
NELCMCGAAKRIAWW,Rank (after),[12],175
same,Rank (before),[13],1238
LGYHWIGWEYCVGIED,P8_MyD88 Rank (after),[5],482
same,P8_MyD88 Rank (before),[6],3246
YLKWGSPWFWDRLRFGPIGQ,P3_MyD88 Rank (after),[5],568
same,P3_MyD88 Rank (before),[6],1571
IAADHLSYLGRLLLSR,Rank (after),[1],885
same,Rank (before),[2],3614
LGYQCIDWEYFVDIED,P8_MyD88 Rank (after),[10],644
same,P8_MyD88 Rank (before),[11],3332
YAFTGQLNQYLVQRGV,P3_MyD88 Rank (after),[10],623
same,P3_MyD88 Rank (before),[11],1538
LKWGDPYFWSKLLYSM,P3_MyD88 Rank (after),[3],247
same,P3_MyD88 Rank (before),[4],2423
LGYHWIDWSILWALK,P8_MyD88 Rank (after),[3],231
same,P8_MyD88 Rank (before),[4],409
SELRVEDDGSVIPLEM,P3_MyD88 Rank (after),[3],201
same,P3_MyD88 Rank (before),[4],3055
SSFLQKLRRRLELSIV,Rank (after),[12],478
same,Rank (before),[13],3124
MFGGDPLHDFLDLISL,P8_MyD88 Rank (after),[10],592
same,P8_MyD88 Rank (before),[11],3655
PHDLDWLYERPVRLIL,Rank (after),[1],980
same,Rank (before),[2],3412
SSFREGLWRLLELSKR,Population,[16],0.00291%
NGHENEIIKEIVETIV,P3_MyD88 Rank (after),[3],205
same,P3_MyD88 Rank (before),[4],3381
